Results from patent publication US20100216779A1 (GLAXOSMITHKLINE LLC, priority 2007, published 2010).

Assays:
Type in all cases: cell-based
[1] = target: T1, human IGF-1R (NIH-3T3 cells over expressing human IGF-1R) (Homo sapiens, UniProt P08069); assay: IGF-1R cellular autophosphorylation (DELFIA); details: IGF-1 stimulated
T1 construct: expressed in transfected cells; host or cells: NIH-3T3 (mouse fibroblasts)
Summary of the method: (§1)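 Receptor-overexpressing NIH-3T3, 10% FBS, 37 °C; cpd 30 uM–1.5 nM × 2 h; stim IGF-1 30 ng/mL (IGF-1R) or insulin 3 ug/mL (IR), 15 min; lysate DELFIA, Eu anti-pTyr; % of stimulated signal.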

[2] = target: T2, IR (NIH-3T3 cells over expressing human IGF-1R or IR) (Homo sapiens, UniProt P06213); assay: IR cellular autophosphorylation (DELFIA); details: NIH-3T3 cells over expressing IR, insulin stimulated
T2 construct: expressed in transfected cells; host or cells: NIH-3T3 (mouse fibroblasts)
Summary of the method: as §1

[3] = tested on: COLO205 (colon); assay: Inhibition of cell proliferation, CellTiter-Glo, COLO205; details: Homo sapiens, COLO 205, 72 h
Summary of the method: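 Exponentially growing COLO205 cells in medium with 10% FBS were plated below 2000 cells/well at 37 °C, 5% CO2. Untreated wells served as controls.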

T1 sequence (P08069 31-1367): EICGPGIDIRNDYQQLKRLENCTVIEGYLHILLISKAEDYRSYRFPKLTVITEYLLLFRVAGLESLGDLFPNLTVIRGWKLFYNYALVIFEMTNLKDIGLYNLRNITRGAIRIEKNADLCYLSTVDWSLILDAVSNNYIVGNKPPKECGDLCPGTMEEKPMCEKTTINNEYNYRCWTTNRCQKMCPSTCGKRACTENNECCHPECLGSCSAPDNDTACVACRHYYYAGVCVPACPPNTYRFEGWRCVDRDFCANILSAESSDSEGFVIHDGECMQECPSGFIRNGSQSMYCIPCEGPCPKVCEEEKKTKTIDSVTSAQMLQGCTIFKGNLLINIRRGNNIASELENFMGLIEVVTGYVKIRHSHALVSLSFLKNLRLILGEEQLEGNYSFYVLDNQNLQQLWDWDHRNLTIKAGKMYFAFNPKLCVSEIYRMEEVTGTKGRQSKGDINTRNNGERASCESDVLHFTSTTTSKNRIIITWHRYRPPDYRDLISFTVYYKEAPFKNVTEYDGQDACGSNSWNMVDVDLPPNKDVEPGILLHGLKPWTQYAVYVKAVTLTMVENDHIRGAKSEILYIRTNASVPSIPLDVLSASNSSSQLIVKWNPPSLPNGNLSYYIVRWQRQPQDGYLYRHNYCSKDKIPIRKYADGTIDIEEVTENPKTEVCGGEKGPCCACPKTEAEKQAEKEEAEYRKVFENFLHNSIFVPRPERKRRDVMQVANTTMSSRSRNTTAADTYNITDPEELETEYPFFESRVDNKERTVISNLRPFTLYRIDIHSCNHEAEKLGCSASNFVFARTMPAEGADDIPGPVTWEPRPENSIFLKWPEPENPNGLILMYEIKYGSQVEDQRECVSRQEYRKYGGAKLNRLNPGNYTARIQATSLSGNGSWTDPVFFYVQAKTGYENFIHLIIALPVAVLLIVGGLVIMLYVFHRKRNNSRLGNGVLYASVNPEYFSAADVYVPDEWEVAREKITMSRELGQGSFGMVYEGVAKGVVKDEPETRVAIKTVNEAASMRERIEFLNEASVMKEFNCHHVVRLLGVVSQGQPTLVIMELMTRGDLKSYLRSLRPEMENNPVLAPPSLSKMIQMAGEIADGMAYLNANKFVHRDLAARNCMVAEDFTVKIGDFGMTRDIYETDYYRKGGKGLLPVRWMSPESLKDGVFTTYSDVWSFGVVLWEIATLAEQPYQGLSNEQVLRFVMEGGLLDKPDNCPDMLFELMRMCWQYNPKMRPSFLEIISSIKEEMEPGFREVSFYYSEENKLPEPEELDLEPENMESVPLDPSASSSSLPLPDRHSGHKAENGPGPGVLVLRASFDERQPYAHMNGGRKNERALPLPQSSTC
T2 sequence (P06213 28-1382): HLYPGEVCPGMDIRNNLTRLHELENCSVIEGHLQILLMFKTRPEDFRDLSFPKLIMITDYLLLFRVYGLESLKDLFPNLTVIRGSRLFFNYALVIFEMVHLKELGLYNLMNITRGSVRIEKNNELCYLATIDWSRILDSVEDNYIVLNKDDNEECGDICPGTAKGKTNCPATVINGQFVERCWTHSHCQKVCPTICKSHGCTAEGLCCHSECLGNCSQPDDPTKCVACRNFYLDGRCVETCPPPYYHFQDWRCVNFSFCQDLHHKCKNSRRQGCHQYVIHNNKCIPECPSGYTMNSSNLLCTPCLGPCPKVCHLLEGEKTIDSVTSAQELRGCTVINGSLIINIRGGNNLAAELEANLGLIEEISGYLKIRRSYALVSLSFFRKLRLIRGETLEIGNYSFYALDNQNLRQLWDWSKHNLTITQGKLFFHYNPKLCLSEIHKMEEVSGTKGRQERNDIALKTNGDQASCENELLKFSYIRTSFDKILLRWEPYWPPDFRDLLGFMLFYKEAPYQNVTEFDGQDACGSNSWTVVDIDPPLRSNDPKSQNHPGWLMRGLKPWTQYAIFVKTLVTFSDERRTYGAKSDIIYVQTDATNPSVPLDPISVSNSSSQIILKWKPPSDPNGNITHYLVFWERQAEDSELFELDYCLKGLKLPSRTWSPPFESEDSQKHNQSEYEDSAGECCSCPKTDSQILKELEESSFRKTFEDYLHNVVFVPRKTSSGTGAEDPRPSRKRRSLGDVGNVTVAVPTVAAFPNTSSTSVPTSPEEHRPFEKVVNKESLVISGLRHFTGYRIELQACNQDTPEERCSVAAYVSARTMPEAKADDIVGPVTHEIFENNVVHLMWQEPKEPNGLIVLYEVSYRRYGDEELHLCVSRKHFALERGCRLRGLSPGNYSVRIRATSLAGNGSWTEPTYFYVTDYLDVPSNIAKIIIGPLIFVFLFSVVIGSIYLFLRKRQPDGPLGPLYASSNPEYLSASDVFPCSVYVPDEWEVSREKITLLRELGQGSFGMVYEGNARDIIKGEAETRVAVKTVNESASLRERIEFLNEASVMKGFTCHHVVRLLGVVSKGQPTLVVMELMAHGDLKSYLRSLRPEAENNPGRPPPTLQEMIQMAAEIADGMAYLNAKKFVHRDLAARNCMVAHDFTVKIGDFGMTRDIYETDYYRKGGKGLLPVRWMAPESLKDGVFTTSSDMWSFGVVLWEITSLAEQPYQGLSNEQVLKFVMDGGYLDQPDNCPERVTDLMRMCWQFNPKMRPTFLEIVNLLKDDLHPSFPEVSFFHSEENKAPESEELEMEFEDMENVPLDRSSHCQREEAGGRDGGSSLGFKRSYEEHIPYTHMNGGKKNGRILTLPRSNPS

COc1cc(CCCN2CCN(C)CC2)ccc1Nc1nccc(-c2c(-c3cccc(C(=O)Nc4c(F)cccc4F)c3)nc3ccccn23)n1 [Example 141, N-(2,6-difluorophenyl)-3-{3-[2-({2-(methyloxy)-4-[3-(4-methyl-1-piperazinyl)propyl]phenyl}amino)-4-pyrimidinyl]imidazo[1,2-a]pyridin-2-yl}benzamide]
IC50 [1]: 100 to 500 nM
IC50 [2]: 100 to 500 nM
IC50 [3]: 250 to 1000 nM

CCOc1cc(C2CCN(CCS(C)(=O)=O)CC2)ccc1Nc1nccc(-c2c(-c3cccc(C(=O)Nc4c(F)cccc4F)c3)nc3ccccn23)n1 [Example 183, N-(2,6-difluorophenyl)-3-(3-{2-[(2-(ethyloxy)-4-{1-[2-(methylsulfonyl)ethyl]-4-piperidinyl}phenyl)amino]-4-pyrimidinyl}imidazo[1,2-a]pyridin-2-yl)benzamide]
IC50 [1]: < 100 nM
IC50 [2]: < 100 nM
IC50 [3]: 250 to 1000 nM

COc1cc(N2CCC(N3CCCCC3)CC2)ccc1Nc1nccc(-c2c(-c3cccc(C(=O)Nc4ccc(F)cc4F)c3)nc3ccccn23)n1 [Example 72, 3-[3-(2-{[4-(1,4′-bipiperidin-1′-yl)-2-(methyloxy)phenyl]amino}-4-pyrimidinyl)imidazo[1,2-a]pyridin-2-yl]-N-(2,4-difluorophenyl)benzamide]
IC50 [1]: < 100 nM
IC50 [2]: < 100 nM
IC50 [3]: 250 to 1000 nM

COc1ccn2c(-c3ccnc(Nc4cccc(OCCN(C)C)c4)n3)c(-c3cccc(C(=O)Nc4c(F)cccc4F)c3)nc2c1 [Example 17, N-(2,6-difluorophenyl)-3-[3-{2-[(3-{[2-(dimethylamino)ethyl]oxy}phenyl)amino]-4-pyrimidinyl}-7-(methyloxy)imidazo[1,2-a]pyridin-2-yl]benzamide]
IC50 [1]: 100 to 500 nM
IC50 [2]: > 500 nM
IC50 [3]: 250 to 1000 nM

COc1cc(N2CCC(CN3CCCCC3)CC2)ccc1Nc1nccc(-c2c(-c3cccc(C(=O)Nc4c(F)cccc4F)c3)nc3ccccn23)n1 [Example 36, N-(2,6-difluorophenyl)-3-{3-[2-({2-(methyloxy)-4-[4-(1-piperidinylmethyl)-1-piperidinyl]phenyl}amino)-4-pyrimidinyl]imidazo[1,2-a]pyridin-2-yl}benzamide]
IC50 [1]: < 100 nM
IC50 [2]: < 100 nM
IC50 [3]: 250 to 1000 nM

CCCOc1cc(N2CCC(N3CCCCC3)CC2)ccc1Nc1nccc(-c2c(-c3cccc(C(=O)Nc4c(F)cccc4F)c3)nc3ccccn23)n1 [Example 33, 3-[3-(2-{[4-(1,4′-bipiperidin-1′-yl)-2-(propyloxy)phenyl]amino}-4-pyrimidinyl)imidazol[1,2-a]pyridin-2-yl]-N-(2,6-difluorophenyl)benzamide]
IC50 [1]: < 100 nM
IC50 [2]: 100 to 500 nM
IC50 [3]: 250 to 1000 nM

COc1cc(-c2nnc(CN(C)C)o2)ccc1Nc1nccc(-c2c(-c3ccc(OC)c(C(=O)Nc4c(F)cccc4F)c3)nc3ccccn23)n1 [Example 26, N-(2,6-difluorophenyl)-5-[3-(2-{[4-{5-[(dimethylamino)methyl]-1,3,4-oxadiazol-2-yl}-2-(methyloxy)phenyl]amino}-4-pyrimidinyl)imidazo[1,2-a]pyridin-2-yl]-2-(methyloxy)benzamide]
IC50 [1]: < 100 nM
IC50 [2]: > 500 nM
IC50 [3]: 250 to 1000 nM

COc1cc(CCCN2CCCCC2)ccc1Nc1nccc(-c2c(-c3ccc(OC)c(C(=O)Nc4c(F)cccc4F)c3)nc3ccccn23)n1 [Example 140, N-(2,6-difluorophenyl)-2-(methyloxy)-5-{3-[2-({2-(methyloxy)-4-[3-(1-piperidinyl)propyl]phenyl}amino)-4-pyrimidinyl]imidazo[1,2-a]pyridin-2-yl}benzamide]
IC50 [1]: < 100 nM
IC50 [2]: < 100 nM
IC50 [3]: 250 to 1000 nM

COc1cc(N2CCC(N3CCCCC3)CC2)c(C)cc1Nc1nccc(-c2c(-c3ccc(OC)c(C(=O)Nc4c(F)cccc4F)c3)nc3ccccn23)n1 [Example 109, 5-[3-(2-{[4-(1,4′-bipiperidin-1′-yl)-5-methyl-2-(methyloxy)phenyl]amino]-4-pyrimidinyl)imidazo[1,2-a]pyridin-2-yl]-N-(2,6-difluorophenyl)-2-(methyloxy)benzamide]
IC50 [1]: < 100 nM
IC50 [2]: < 100 nM
IC50 [3]: < 250 nM

COc1cc(N2CCC(N3CCCCC3)CC2)c(Cl)cc1Nc1nccc(-c2c(-c3ccc(OC)c(C(=O)Nc4c(F)cccc4F)c3)nc3ccccn23)n1 [Example 105, 5-[3-(2-{[4-(1,4′-bipiperidin-1′-yl)-5-chloro-2-(methyloxy)phenyl]amino]-4-pyrimidinyl)imidazo[1,2-a]pyridin-2-yl]-N-(2,6-difluorophenyl)-2-(methyloxy)benzamide]
IC50 [1]: < 100 nM
IC50 [2]: < 100 nM
IC50 [3]: < 250 nM

COc1ccn2c(-c3ccnc(Nc4ccc(N5CCC(N6CCCCC6)CC5)cc4OC)n3)c(-c3cccc(C(=O)Nc4c(F)cccc4F)c3)nc2c1 [Example 39, 3-[3-(2-{[4-(1,4′-bipiperidin-1′-yl)-2-(methyloxy)phenyl]amino}-4-pyrimidinyl)-7-(methyloxy)imidazo[1,2-a]pyridin-2-yl]-N-(2,6-difluorophenyl)benzamide]
IC50 [1]: < 100 nM
IC50 [2]: 100 to 500 nM
IC50 [3]: > 1000 nM

COc1cc(N2CCC(N3CCCCC3)CC2)ccc1Nc1nccc(-c2c(-c3cccc(C(=O)Nc4c(F)cccc4F)c3)nc3c(C)cccn23)n1 [Example 43, 3-[3-(2-{[4-(1,4′-bipiperidin-1-yl)-2-(methyloxy)phenyl]amino}-4-pyrimidinyl)-8-methylimidazo[1,2-a]pyridin-2-yl]-N-(2,6-difluorophenyl)benzamide]
IC50 [1]: < 100 nM
IC50 [2]: 100 to 500 nM
IC50 [3]: 250 to 1000 nM

CCOc1cc(N2CCN(C3CCN(CCF)CC3)CC2)ccc1Nc1nccc(-c2c(-c3cccc(C(=O)Nc4c(F)cccc4F)c3)nc3ccccn23)n1 [Example 91, N-(2,6-difluorophenyl)-3-(3-{2-[(2-(ethyloxy)-4-{4-[1-(2-fluoroethyl)-4-piperidinyl]-1-piperazinyl}phenyl)amino]-4-pyrimidinyl}imidazo[1,2-a]pyridin-2-yl)benzamide]
IC50 [1]: < 100 nM
IC50 [2]: < 100 nM
IC50 [3]: 250 to 1000 nM

CCc1cc(N2CCC(N3CCCCC3)CC2)ccc1Nc1nccc(-c2c(-c3cccc(C(=O)Nc4c(F)cccc4F)c3)nc3ccccn23)n1 [Example 40, 3-[3-(2-{[4-(1,4′-bipiperidin-1′-yl)-2-ethylphenyl]amino}-4-pyrimidinyl)imidazo[1,2-a]pyridin-2-yl]-N-(2,6-difluorophenyl)benzamide]
IC50 [1]: < 100 nM
IC50 [2]: 100 to 500 nM
IC50 [3]: 250 to 1000 nM

COc1cc(N2CCC(N3CCSCC3)CC2)ccc1Nc1nccc(-c2c(-c3cccc(C(=O)Nc4c(F)cccc4F)c3)nc3ccccn23)n1 [Example 85, N-(2,6-difluorophenyl)-3-{3-[2-({2-(methyloxy)-4-[4-(4-thiomomholinyl)-1-piperidinyl]phenyl}amino)-4-pyrimidinyl]imidazo[1,2-a]pyridin-2-yl}benzamide]
IC50 [1]: 100 to 500 nM
IC50 [2]: 100 to 500 nM
IC50 [3]: 250 to 1000 nM

COc1cc(N2CCC(N3CCC(O)CC3)CC2)ccc1Nc1nccc(-c2c(-c3cccc(C(=O)Nc4c(F)cccc4F)c3)nc3ccccn23)n1 [Example 80, N-(2,6-difluorophenyl)-3-[3-(2-{[4-(4-hydroxy-1,4′-bipiperidin-1′-yl)-2-(methyloxy)-phenyl]amino}-4-pyrimidinyl)imidazo[1,2-a]pyridin-2-yl]benzamide]
IC50 [1]: < 100 nM
IC50 [2]: < 100 nM
IC50 [3]: < 250 nM

COc1cc(CCCN2CCCCC2)ccc1Nc1nccc(-c2c(-c3cccc(C(=O)Nc4c(F)cccc4F)c3)nc3ccccn23)n1 [Example 139, N-(2,6-difluorophenyl)-3-{3-[2-({2-(methyloxy)-4-[3-(1-piperidinyl)propyl]phenyl}amino)-4-pyrimidinyl]imidazo[1,2-a]pyridin-2-yl}benzamide]
IC50 [1]: < 100 nM
IC50 [2]: 100 to 500 nM
IC50 [3]: 250 to 1000 nM

COc1cc(N2CCN(C3CCN(CCS(C)(=O)=O)CC3)CC2)ccc1Nc1nccc(-c2c(-c3cccc(C(=O)Nc4c(F)cccc4F)c3)nc3ccccn23)n1 [Example 89, N-(2,6-difluorophenyl)-3-[3-(2-{[2-(methyloxy)-4-(4-{1-[2-(methylsulfonyl)ethyl]-4-piperidinyl}-1-piperazinyl)phenyl]amino}-4-pyrimidinyl)imidazo[1,2-a]pyridin-2-yl]benzamide]
IC50 [1]: < 100 nM
IC50 [2]: < 100 nM
IC50 [3]: < 250 nM

COc1cc(N2CCC[C@@H](O)C2)ccc1Nc1nccc(-c2c(-c3cccc(C(=O)Nc4c(F)cccc4F)c3)nc3ccccn23)n1 [Example 170, N-(2,6-difluorophenyl)-3-[3-(2-{[4-[(3R)-3-hydroxy-1-piperidinyl]-2-(methyloxy)phenyl]amino}-4-pyrimidinyl)imidazo[1,2-a]pyridin-2-yl]benzamide]
IC50 [1]: < 100 nM
IC50 [2]: 100 to 500 nM
IC50 [3]: 250 to 1000 nM

COc1ccc(-c2nc3cc(C)ccn3c2-c2ccnc(Nc3cccc(OCCN(C)C)c3)n2)cc1C(=O)Nc1c(F)cccc1F [Example 2, N-(2,6-difluorophenyl)-5-(3-{2-[(3-{[2-(dimethylamino)ethyl]oxy}phenyl)amino]-4-pyrimidinyl}-7-methylimidazo[1,2-a]pyridin-2-yl)-2-(methyloxy)benzamide]
IC50 [1]: > 500 nM
IC50 [2]: > 500 nM
IC50 [3]: 250 to 1000 nM

COc1cc(N2CCC(N3CCCCC3)CC2)c(Cl)cc1Nc1nccc(-c2c(-c3cccc(C(=O)Nc4c(F)cccc4F)c3)nc3ccccn23)n1 [Example 104, 3-[3-(2-{[4-(1,4′-bipiperidin-1′-yl)-5-chloro-2-(methyloxy)phenyl]amino]-4-pyrimidinyl)imidazo[1,2-a]pyridin-2-yl]-N-(2,6-difluorophenyl)benzamide]
IC50 [1]: < 100 nM
IC50 [2]: < 100 nM
IC50 [3]: 250 to 1000 nM
